Data from US7312219B2, “Heteroaromatic inhibitors of fructose 1,6-bisphosphatase” (Metabasis Therapeutics, Inc., priority 1998, dated 2007).

Tests used:
Human adenosine kinase = molecular target: T1, Human adenosine kinase (Homo sapiens, UniProt P55263); assay: AMP Site/Enzyme Selectivity: Adenosine Kinase; type: biochemical; conditions: read-out: Adenosine Kinase (inh.)
T1 construct: made in house; host or cells: E. coli

Porcine heart AMPDA = assay: AMP Site/Enzyme Selectivity: Adenosine Monophosphate Deaminase; type: biochemical; conditions: read-out: AMP Deaminase (inh.)
[1] = molecular target: T2, Glycogen Phosphorylase (rabbit muscle) (Oryctolagus cuniculus, UniProt P00489); assay: AMP Site/Enzyme Selectivity: Glycogen Phosphorylase; type: biochemical; conditions: activation; read-out: Glycogen Phosphorylase (act.)
T2 construct: Enzyme (rabbit muscle) was purchased from Sigma; purchased Sigma; host or cells: rabbit muscle
T2 sequence (P00489 2-843 limits assumed): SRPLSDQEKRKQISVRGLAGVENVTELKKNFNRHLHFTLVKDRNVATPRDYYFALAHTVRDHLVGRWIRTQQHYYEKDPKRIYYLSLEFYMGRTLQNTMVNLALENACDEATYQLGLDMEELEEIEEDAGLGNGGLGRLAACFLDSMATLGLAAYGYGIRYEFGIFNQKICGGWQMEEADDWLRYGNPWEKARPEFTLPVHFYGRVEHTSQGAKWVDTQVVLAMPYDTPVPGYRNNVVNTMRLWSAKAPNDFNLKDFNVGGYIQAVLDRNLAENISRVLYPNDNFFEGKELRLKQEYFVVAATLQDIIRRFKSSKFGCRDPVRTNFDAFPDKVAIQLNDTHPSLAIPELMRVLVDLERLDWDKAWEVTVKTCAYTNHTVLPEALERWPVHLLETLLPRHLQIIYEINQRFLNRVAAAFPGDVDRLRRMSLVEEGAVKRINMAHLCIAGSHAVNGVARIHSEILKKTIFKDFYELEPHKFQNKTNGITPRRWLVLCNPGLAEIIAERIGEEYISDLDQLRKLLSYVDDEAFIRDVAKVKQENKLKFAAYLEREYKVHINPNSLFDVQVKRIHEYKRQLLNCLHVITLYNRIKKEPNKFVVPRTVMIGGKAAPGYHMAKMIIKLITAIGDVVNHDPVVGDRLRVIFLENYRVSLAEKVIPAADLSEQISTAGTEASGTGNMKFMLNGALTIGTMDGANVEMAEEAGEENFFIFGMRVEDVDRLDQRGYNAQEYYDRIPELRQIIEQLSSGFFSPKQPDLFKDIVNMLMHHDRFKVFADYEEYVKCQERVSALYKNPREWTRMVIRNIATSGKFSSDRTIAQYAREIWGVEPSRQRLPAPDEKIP

[2] = molecular target: T3, Adenylate Kinase (rabbit muscle) (Oryctolagus cuniculus, UniProt P00569); assay: AMP Site/Enzyme Selectivity: Adenylate Kinase; type: biochemical; conditions: read-out: Adenylate Kinase (inh.)
T3 construct: Enzyme (rabbit muscle) was purchase from Sigma; purchased Sigma; host or cells: rabbit muscle
T3 sequence (P00569 1-194): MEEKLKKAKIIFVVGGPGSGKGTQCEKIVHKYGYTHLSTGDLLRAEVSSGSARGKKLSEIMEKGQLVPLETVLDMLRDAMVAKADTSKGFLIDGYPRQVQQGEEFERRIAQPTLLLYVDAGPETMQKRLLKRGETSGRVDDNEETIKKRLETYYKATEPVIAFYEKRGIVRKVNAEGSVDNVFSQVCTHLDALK

[3] = system: Gluconeogenesis in Rat Hepatocytes; assay: Inhibition of Gluconeogenesis in Rat Hepatocytes; type: cell-based; conditions: Hepatocyte, 10 mM lactate, 1 mM pyruvate, 1 hour incubation, read-out: IC50 Glucose Production
Procedure: Hepatocytes were prepared from overnight fasted Sprague-Dawley rats (250–300 g) according to the procedure of Berry and Friend (Berry, M. N., Friend, D. S., 1969, J. Cell. Biol. 43, 506–520) as modified by Groen (Groen, A. K., Sips, H. J., Vervoorn, R. C., Tager, J. M. , 1982, Eur. J. Biochem. 122, 87–93). Hepatocytes (75 mg wet weight/ml) were incubated in 1 ml Krebs-bicarbonate buffer containing 10 mM Lactate, 1 mM pyruvate, 1 mg/ml BSA, and test compound concentrations from 1 to 500 μM. Incubations were carried out in a 95% oxygen, 5% carbon dioxide atmosphere in closed, 50-ml Falcon tubes submerged in a rapidly shaking water bath (37° C.). After 1 hour, an aliquot (0.25 ml) was removed, transferred to an Eppendorf tube and centrifuged. 50 μl of supernatant was then assayed for glucose content using a Sigma Glucose Oxidase kit as per the manufacturer's instructions.

Fasted Rats = assay: Blood Glucose Lowering Following Intravenous Administration to Fasted Rats; type: in vivo, rat; conditions: 18 h fasted Sprague Dawley rats, relative to saline-treated controls; for inhibition in vivo at 10 mg/kg: Rattus norvegicus, iv, 10 mg/kg i.v., 1 hour
Procedure: Inhibitors were disolved in water and the solution adjusted to neutrality with NaOH. Blood samples were obtained from the tail vein of conscious animals just prior to injection and after 1 hour. Blood glucose was measured using a HemoCue Inc. glucose analyzer according to the instructions of the manufacturer.

[4] = Estimation of the Oral Bioavailability of Phosphonic Acids and their Prodrugs; type: in vivo, rat; conditions: Sprague-Dawley, rat, urine; fasted rats, oral 10–50 mg/kg, 24 h urinary recovery of phosphonic acid, oral vs intravenous
Procedure: Phosphonic acids were dissolved in water, and the solution adjusted to neutrality with sodium hydroxide. Prodrugs were dissolved in 10% ethanol/90% polyethlene glycol (mw 400). Compound was administered by oral gavage to 18-hour fasted Sprague-Dawley rats (220–250 g) at doses ranging from 10–50 mg/kg. The rats were subsequently placed in metabolic cages and urine was collected for 24 hours. The quantity of phosphonic acid excreted into urine was determined by HPLC analysis as described in Example G. In a separate study, urinary recovery was determined following intravenous (tail vein) administration of compound (in the case of the prodrugs, the appropriate parent phosphonic acid was administered i.v.).

[5] = Analysis of Drug Levels and Liver Accumulation in Rats; type: in vivo, rat; conditions: fasted rats, 10 mgs/kg i.v., one hour post injection
Procedure: The compound was dissolved in water and the solution adjusted to neutrality with NaOH. One hour post injection rats were anesthetized with halothane and a liver biopsy (approx. 1 g) was taken as well as a blood sample (2 ml) from the posterior vena cava. A heparin flushed syringe and needle were used for blood collection. The liver sample was immediately homogenized in ice-cold 10% perchloric acid (3 ml), centrifuged, and the supernatant neutralized with ⅓rd volume of 3 M KOH/3 M KHCO3. […] Plasma was prepared from the blood sample by centrifugation and extracted by addition of methanol to 60% (v/v). The methanolic extract was clarified by centrifugation and filtration and then analyzed by HPLC as described above.

Fasted Rat = assay: Glucose Lowering Following Oral Administration to the Fasted Rat; type: in vivo; conditions: oral gavage, 18-hour fasted rats, relative to saline controls
Procedure: Compounds were administered by oral gavage to 18-hour fasted, Sprague Dawley rats (250–300 g, n =3/4/group). Phosphonic acids were prepared in deionized water, and the solution adjusted to neutrality with solidum hydroxide. Prodrugs were dissolved in polyethylene glycol (mw 400). […] The table below indicates the maximum glucose lowering achieved relative to control animals dosed with saline.

[6] = system: Zucker Diabetic Fatty rats; assay: Blood Glucose Lowering in Zucker Diabetic Fatty Rats, Oral; type: in vivo, rat
Procedure: Zucker Diabetic Fatty rats were purchased from Genetics Models Inc. (Indiannapolis, Ind.) at 8 weeks of age and fed the recommended Purina 5008 diet. At the age of 12 weeks, 16 animals with fed blood glucose levels between 500 and 700 mg/dl were selected and divided into two groups (n=8) with statistically equivalent average blood glucose levels. […] The drug solution for this treatment was prepared at 25 mg/ml in deionized water and adjusted to neutrality by dropwise addition of 5 N NaOH. A second group of rats (n=8) was dosed orally with saline, in parallel. Blood glucose was measured in each rat just prior to drug or saline administration and 6 hours post administration. A HemoCue blood glucose analyzer (HemoCue Inc., Mission Viejo, Calif.) was used for these measurements according to the manufacturer's instructions.

[7] = system: Zucker Diabetic Fatty rats; assay: Blood Glucose Lowering in Zucker Diabetic Fatty Rats, Intravenous; type: in vivo, rat; conditions: six hour time point
Procedure: 12-week old Zucker Diabetic Fatty rats (Genetics Models Inc., Indiannapolis, Ind.) maintained on Purina 5008 diet were instrumented with tail artery and tail vein catethers at 8 am on the day of the study. Food was removed for the remainder of the day. […] Blood samples were obtained from the tail artery catheter at the start of the infusions, and at hourly intervals thereafter. Glucose was measured in the samples by means of a HemoCue analyzer (HemoCue Inc., Mission Viejo, Calif.) according to the manufacturer's instructions.

[8] = system: Gluconeogenesis in Zucker Diabetic Fatty Rats; assay: Inhibition of Gluconeogenesis by FBPase Inhibitor in Zucker Diabetic Fatty Rats (14C-bicarbonate to 14C-glucose); type: in vivo, rat; conditions: after 6-hour infusion at 3 mg/kg/h, n=3/group
Procedure: Following a 6-hour infusion of 3.26 at 3 mg/kg/h or saline to Zucker Diabetic Fatty rats (n=3/group) as described in Example K, a bolus of ^14C-bicarbonate (40 μCi/100 g body weight) was administered via the tail vein catheter. 20 minutes later, a blood sample (0.6 mL) was taken via the tail artery. Blood (0.5 ml) was diluted into 6 mL deionized water and protein precipitated by addition of 1 mL zinc sulfate (0.3 N) and 1 mL barium hydroxide (0.3 N). The mixture was centrifuged (20 minutes, 1000×g) and 5 mL of the resulting supernatant was then combined with 1 g of a mixed bed ion exchange resin (1 part AG 50W-X8, 100–200 mesh, hydrogen form, and 2 parts AG 1-X8, 100–200 mesh, acetate form) to separate ^14-C-bicabonate from ^14C-glucose. The slurry was shaken at room temperature for four hours and then allowed to settle. An aliquot of the supernatant (0.5 mL) was then counted in 5 mL scintillation cocktail. The percentage inhibition of gluconeogenesis in drug-treated rats was calculated by dividing the average cpm of ^14C-glucose in samples from drug-treated animals by those from saline-injected animals.

db/db Mouse = assay: Hepatic Glycogen Levels in the db/db Mouse; type: in vivo; conditions: db/db mice
Procedure: Db/db mice and their nondiabetic db/+ littermates were obtained at 8 weeks of age (Jackson Labs., Bar Harbor, Me.) and enrolled in the study at 11 weeks of age. […] Db/+ mice were treated with saline according to the same schedule. At 6 pm, mice were anesthetized with halothane and a small section of liver (0.5 g) was removed by the freeze-clamping technique. The liver samples were fully frozen by subsequent immersion in liquid nitrogen and then homogenized in 5 volumes of cold 0.6 N perchloric acid. Glycogen content was determined enzymatically in the homogenates by the method of Keppler and Decker (Keppler D and Decker K in Methods of Enzymatic Analysis, Bergmeyer, H U, Ed., Verlag Chemie International, Deerfield Beach, Fla., 1974).

T1 sequence (P55263 1-345 isoform P55263-2): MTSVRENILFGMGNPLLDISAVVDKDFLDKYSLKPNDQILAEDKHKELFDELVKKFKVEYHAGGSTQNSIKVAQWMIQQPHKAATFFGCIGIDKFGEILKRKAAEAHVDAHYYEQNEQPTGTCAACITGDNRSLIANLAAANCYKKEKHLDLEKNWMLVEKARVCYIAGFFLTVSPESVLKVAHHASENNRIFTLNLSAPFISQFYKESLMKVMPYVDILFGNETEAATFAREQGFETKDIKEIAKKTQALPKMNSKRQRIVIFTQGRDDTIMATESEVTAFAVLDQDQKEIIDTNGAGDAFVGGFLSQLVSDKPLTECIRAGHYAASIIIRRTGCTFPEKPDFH

Row | Structure (SMILES) | IC50 (Human adenosine kinase) [µM] | IC50 (Porcine heart AMPDA) [µM] | EC50 [1] [µM] | IC50 [2] [µM] | IC50 [3] [µM] | inhibition in vivo at 10 mg/kg (Fasted Rats) [%] | bioavailability [4] [%] | blood glucose lowering (Fasted Rats; 3 mg/kg intravenous) [%] | concentration at 1 h ([5]; Sprague-Dawley, rat, iv, plasma, read-out: Plasma Conc.) [µM] | % Glucose Lowering (maximum) (Fasted Rat; dose 30 mg/kg, time point 2 h) [%] | lowering of blood glucose relative to saline treated controls ([6]; 100 mg/kg oral, 6 hours post administration, p=0.01) [%] | Blood Glucose, 7 pm ([6]; 6 hours post 100 mg/kg oral gavage, n=8) [mg/dL] | Blood Glucose, 1 pm ([6]; just prior to administration of 100 mg/kg by oral gavage, n=8) [mg/dL] | decrease in blood glucose relative to saline-infused controls ([7]; 3 mg/kg/h tail vein infusion) [%] | decrease in blood glucose relative to saline-infused controls ([7]; 30 mg/kg/h tail vein infusion) [%] | 14C-Glucose production inhibited [8] [%] | liver glycogen stores (db/db Mouse; 100 mg/kg oral at 8 am and 2 pm, liver taken 6 pm) | Liver Glycogen (db/db Mouse; 100 mg/kg orally at 8 am and 2 pm, Evening, 6 pm) | Liver Conc. ([5]; liver) [nmol/g] | % Glucose Lowering (maximum) (Fasted Rat; dose 90 mg/kg, time point 3 h) [%]
1 | CC(C)Cc1sc(N)nc1-c1ccc(P(=O)(O)O)o1 [Compound 3.1, 2-amino-5-isobutyl-4-[2-(5-phosphono)furanyl]thiazole] | > 10 | > 10 | > 100 | > 500 | 2.5 | 65 | 4 | – | – | – | – | – | – | – | – | – | – | – | – | –
2 | CSc1sc(N)nc1-c1ccc(P(=O)(O)O)o1 [Compound 3.26, 2-Amino-5-methylthio-4-[2-(5-phosphono)furanyl]thiazole] | – | – | – | – | – | 73 | – | 52 | 56 ± 2 | 70 | 15.4 | 497 ± 14 | 573 ± 26 | 29 | 39 | 75 | reduction of glycogen stores to levels that approached those of nondiabetic db/+ mice | 34.4 ± 7.1 (n = 3) μmol glucose/g | – | –
3 | CC(C)Cc1oc(N)nc1-c1ccc(P(=O)(O)O)o1 [Compound 10.1, 2-amino-5-isobutyl-4-[2-(5-phosphono)furanyl]oxazole] | > 10 | > 10 | > 100 | > 500 | – | 51 | 21 | – | – | – | – | – | – | – | – | – | – | – | 35.6 ± 4.2 | 55
